SMILES strings stand for the structures. Where a name gives a salt, the structure may show the parent alone.

The test has as its system activated T cells (CD4+ T cells derived from the mouse spleen). In words: Incorporation of 3H-thymidine into activated T cells. The test is classed as cell-based, mouse (C57BL/6J). The following applies: 3H-thymidine incorporation, mouse spleen CD4+ T cells activated with Dynabeads Mouse T-Activator CD3/CD28. The method, then: Effect of a test substance on incorporation of ^3H-thymidine was evaluated using T cells derived from the mouse spleen. The spleen was excised out from a C57BL/6J mouse euthanized, cut into pieces, ground on a cell strainer (40 μm mesh) and centrifuged to collect spleen cells. CD4+ T cells were isolated from the spleen cells by use of EasySep Mouse CD4+ T cell isolation kit (STEMCELL Technologies). CD4+ T cells were seeded to a 96-well round-bottom plate. Test substance dissolved in DMSO (dimethyl sulfoxide) or vehicle (DMSO) was added to culture medium and Dynabeads Mouse T-Activator CD3/CD28 (Thermo Fisher Scientific Inc.) was added. Culture was carried out at 37° C. in 5% CO2. After culture was carried out for 24 hours, ^3H-thymidine (PerkinElmer) diluted with the culture medium was added to individual wells. Culture was further carried out overnight at 37° C. in 5% CO2. In order to measure ^3H-thymidine incorporated in nuclei of the cells, the cells were collected on a filter plate UniFilter-96 GF/B (PerkinElmer) by use of a FilterMate Universal Harvester (PerkinElmer). After the filter plate was placed in a dryer and allowed to stand still for 2 hours or more, scintillation cocktail MicroScint-O (PerkinElmer) was added and radioactivity was measured by TopCount NXT (PerkinElmer). With the radioactivity of a group not containing a test substance being specified as 100% and the radioactivity of a group not activated being specified as 0%, relative radioactivity values of individual wells to which the test substance was added (proliferation rate, % of vehicle) were calculated. The values of “% of vehicle” were entered in analysis software Prism (Version 4.03, GraphPad Software). “Nonlinear regression Log (inhibitor) vs reaction variable tilt” was selected and sigmoid type-fitting (Bottom=0, Top=100) was carried out to calculate 50% inhibition concentration (IC50). The compound of the present invention suppresses ^3H-thymidine incorporation in activated T cells.
Background: Incorporation of labelled thymidine or its analogues reports DNA synthesis.

A word on the IC50: it is the concentration that gives 50% inhibition. With `N[C@@H](Cc1cccc(S(=O)(=O)N2CC(Oc3ccc4[nH]ncc4c3)(c3ccccc3)C2)c1)C(=O)O` [Example 90, (2S)-2-Amino-3-(3-{3-[(1H-indazol-5-yl)oxy]-3-phenylazetidin-1-sulfonyl}phenyl)propanoic acid], the IC50 was 3.4 nM.
With `Cc1ncc(OC2(c3ccc(F)cc3)CN(S(=O)(=O)c3cccc(C[C@H](N)C(=O)O)c3)C2)cc1F` [Example 49, (2S)-2-Amino-3-[3-({3-[(5-fluoro-6-methylpyridin-3-yl)oxy]-3-(4-fluorophenyl)azetidin-1-yl}sulfonyl)phenyl]propanoic acid dihydrochloride] the figure was 36 nM; with `N[C@@H](Cc1cccc(S(=O)(=O)N2CC(Oc3ccc(F)c(Cl)c3)(c3ccccc3)C2)c1)C(=O)O` [Example 17, (2S)-Amino-3-(3-{[3-(3-chloro-4-fluorophenoxy)-3-phenylazetidin-1-yl]sulfonyl}phenyl)propanoic acid], 23 nM; with `Cc1ccc(OC2(c3ccc(F)cn3)CN(S(=O)(=O)c3cccc(C[C@H](N)C(=O)O)c3)C2)cc1` [Example 50, (2S)-2-Amino-3-(3-{[3-(5-fluoropyridin-2-yl)-3-(4-methylphenoxy)azetidin-1-yl]sulfonyl}phenyl)propanoic acid dihydrochloride], 24 nM.
For `CC(=O)c1ccc(OC2(c3ccc(C)cc3)CN(S(=O)(=O)c3cccc(C[C@H](N)C(=O)O)c3)C2)cc1` [Example 14, (2S)-3-{3-[3-(4-Acetylphenoxy)-3-(4-methylphenyl)azetidine-1-sulfonyl]phenyl}-2-aminopropanoic acid monoformate] the value was 7.7 nM; for `N[C@@H](Cc1cccc(S(=O)(=O)N2CC(Oc3ccc(Cl)cc3)(c3ccc(Cl)cc3)C2)c1)C(=O)O` [Example 53, (2S)-2-Amino-3-(3-{[3-(4-chlorophenoxy)-3-(4-chlorophenyl)azetidin-1-yl]sulfonyl}phenyl)propanoic acid monoformate], 8.7 nM.
With `C[C@@H](OC(=O)[C@@H](N)Cc1cccc(S(=O)(=O)N2CC(Oc3cccc(F)c3)(c3ccccc3)C2)c1)C(=O)N(C)C` [Example 32, (2R)-1-(Dimethylamino)-1-oxopropan-2-yl (2S)-2-amino-3-{3-[3-(3-fluorophenoxy)-3-phenylazetidin-1-sulfonyl]phenyl}propanoate monotrifluoroacetate] the figure was 18 nM; with `N[C@@H](Cc1cccc(S(=O)(=O)N2CC(Oc3ccc4cn[nH]c4c3)(c3ccccc3)C2)c1)C(=O)O` [Example 10, (2S)-2-Amino-3-(3-{3-[(1H-indazol-6-yl)oxy]-3-phenylazetidine-1-sulfonyl}phenyl)propanoic acid monohydrochloride], 10 nM.
For the compound `CC(C)NC(=O)c1ccc(OC2(c3ccccc3)CN(S(=O)(=O)c3cccc(C[C@H](N)C(=O)O)c3)C2)cc1` [Example 11, (2S)-2-Amino-3-[3-(3-phenyl-3-{4-[(propan-2-yl)carbamoyl]phenoxy}azetidin-1-sulfonyl)phenyl]propanoic acid monoformate], 26 nM corresponded to half-maximal inhibition (IC50).
`N[C@@H](Cc1cccc(S(=O)(=O)N2CC(Oc3ccc4c(c3)COB4O)(c3ccc(F)cc3)C2)c1)C(=O)O` [Example 58, (2S)-2-Amino-3-[3-({3-(4-fluorophenyl)-3-[(1-hydroxy-1,3-dihydro-2,1-benzoxaborol-5-yl)oxy]azetidin-1-yl)sulfonyl)phenyl]propanoic acid monoformate] came in with an IC50 of 16 nM.
`N[C@@H](Cc1cccc(S(=O)(=O)N2CC(Oc3ccc(-c4ccccc4)cc3)(c3ccccc3)C2)c1)C(=O)O` [Example 2, (2S)-2-Amino-3-(3-{3-[([1,1′-biphenyl]-4-yl)oxy]-3-phenylazetidin-1-sulfonyl}phenyl)propanoic acid]: the IC50 worked out at 12 nM.
For `CCc1ccc(OC2(c3ccc(F)cc3)CN(S(=O)(=O)c3cccc(C[C@H](N)C(=O)O)c3)C2)cn1` [Example 48, (2S)-2-Amino-3-[3-({3-[(6-ethylpyridin-3-yl)oxy]-3-(4-fluorophenyl)azetidin-1-yl}-sulfonyl)phenyl]propanoic acid dihydrochloride] the value was 22 nM; for `Cc1cccc(OC2(c3ccccc3)CN(S(=O)(=O)c3cccc(C[C@H](N)C(=O)O)c3)C2)c1` [Example 43, (2S)-2-Amino-3-(3-{[3-(3-methylphenoxy)-3-phenylazetidin-1-yl]sulfonyl}phenyl)propanoic acid monohydrochloride], 18 nM.
`N[C@@H](Cc1cccc(S(=O)(=O)N2CC(Oc3ccc(Cl)cc3)(c3ccc(F)cc3)C2)c1)C(=O)O` [Example 35, (2S)-2-Amino-3-{3-[3-(4-chlorophenoxy)-3-(4-fluorophenyl)azetidine-1-sulfonyl]phenyl}propanoic acid monohydrochloride] displayed an IC50 of 24 nM.
Turning to `N[C@@H](Cc1cccc(S(=O)(=O)N2CC(Oc3ccc(B(O)O)cc3)(c3ccccc3)C2)c1)C(=O)O` [Example 52, (2S)-2-Amino-3-(3-{[3-(4-boronophenoxy)-3-phenylazetidin-1-yl]sulfonyl}phenyl)propanoic acid monoformate], the IC50 came to 6.6 nM.
Regarding `N[C@@H](Cc1cccc(S(=O)(=O)N2CC(Oc3ccc(F)cc3)(c3ccc(Cl)cc3)C2)c1)C(=O)O` [Example 54, (2S)-2-Amino-3-(3-{[3-(4-chlorophenyl)-3-(4-fluorophenoxy)azetidin-1-yl]sulfonyl}phenyl)propanoic acid monoformate], half-maximal inhibition (IC50) required 4.8 nM.
For `NC(=O)c1ccc(OC2(c3ccc(Cl)cc3)CN(S(=O)(=O)c3cccc(C[C@H](N)C(=O)O)c3)C2)cc1` [Example 61, (2S)-2-Amino-3-(3-{[3-(4-carbamoylphenoxy)-3-(4-chlorophenyl)azetidin-1-yl]sulfonyl}phenyl)propanoic acid monohydrochloride] the value was 9.9 nM; for `CC(=O)c1ccc(OC2(c3ccc(F)cc3)CN(S(=O)(=O)c3cccc(C[C@H](N)C(=O)O)c3)C2)cc1F` [Example 4, (2S)-3-{3-[3-(4-Acetyl-3-fluorophenoxy)-3-(4-fluorophenyl)azetidine-1-sulfonyl]phenyl}-2-aminopropanoic acid monohydrochloride], 12 nM.
`N[C@@H](Cc1cccc(S(=O)(=O)N2CC(Oc3ccc(F)cc3)(c3ccc(F)c(F)c3)C2)c1)C(=O)O` [Example 37, (2S)-2-Amino-3-{3-[3-(3,4-difluorophenyl)-3-(4-fluorophenoxy)azetidin-1-sulfonyl]phenyl}propanoic acid monohydrochloride]: the half-maximal inhibitory concentration (IC50) was determined as 24 nM.
As for `COc1ccc(OC2(c3ccc(F)cc3)CN(S(=O)(=O)c3cccc(C[C@H](N)C(=O)O)c3)C2)cn1` [Example 57, (2S)-2-Amino-3-[3-({3-(4-fluorophenyl)-3-[(6-methoxypyridin-3-yl)oxy]azetidin-1-yl}sulfonyl)phenyl]propanoic acid monoformate], the IC50 is 16 nM.
`N[C@@H](Cc1cccc(S(=O)(=O)N2CC(Oc3ccc(OC(F)F)cc3)(c3ccccc3)C2)c1)C(=O)O` [Example 12, (2S)-2-Amino-3-(3-{3-[4-(difluoromethoxy)phenoxy]-3-phenylazetidin-1-sulfonyl}phenyl)propanoic acid monoformate] returned an IC50 of 21 nM.
In turn, `Cc1ccc(C2(Oc3cccc(F)c3)CN(S(=O)(=O)c3cccc(C[C@H](N)C(=O)O)c3)C2)cc1` [Example 59, (2S)-2-Amino-3-(3-{[3-(3-fluorophenoxy)-3-(4-methylphenyl)azetidin-1-yl]sulfonyl}phenyl)propanoic acid monoformate] came in with an IC50 of 18 nM.
Compound `NC(=O)c1ccc(OC2(c3ccc(F)c(F)c3)CN(S(=O)(=O)c3cccc(C[C@H](N)C(=O)O)c3)C2)cc1` [Example 39, (2S)-2-Amino-3-{3-[3-(4-carbamoylphenoxy)-3-(3,4-difluorophenyl)azetidin-1-sulfonyl]phenyl}propanoic acid monohydrochloride] showed an IC50 of 14 nM.
For `NC(=O)c1ccc(OC2(c3ccc(F)cc3)CN(S(=O)(=O)c3cccc(C[C@H](N)C(=O)O)c3)C2)cn1` [Example 86a, dihydrochloride] the value was 23 nM; for `CN(C)c1ccc(OC2(c3ccc(F)cc3)CN(S(=O)(=O)c3cccc(C[C@H](N)C(=O)O)c3)C2)cc1` [Example 21, (2S)-2-Amino-3-{3-[4-(dimethylamino)phenoxy]-3-(4-fluorophenyl)azetidin-1-yl]sulfonylphenyl}propanoic acid monohydrochloride], 3.7 nM; for `CC(=O)c1ccc(OC2(c3ccc(F)cn3)CN(S(=O)(=O)c3cccc(C[C@H](N)C(=O)O)c3)C2)cc1` [Example 60, (2S)-3-(3-{[3-(4-acetylphenoxy)-3-(5-fluoropyridin-2-yl)azetidin-1-yl]sulfonyl}phenyl)-2-aminopropanoic acid dihydrochloride], 14 nM.
